Where no end group is shown, it is not given here. [ ]: non-standard residue; d: D form.

Assay [1] concerns BT-549 cells. As to the kind of experiment: MTT assay (cell viability), BT-549. The format is cell-based, human. Conditions: BT-549, 48 h, serum-free, combined with mAb a3-3a. As to the method: (§1) MTT assay: Mitochondrial activity was measured with the 3-(4, 5-dimethylthiazol-2-yl)-2, 5-diphenyltetrazolium bromide (MTT) assay (Sigma) as described before. The cells were grown on 24-well culture plates with 500 μl of medium and treated with various reagents according to the experimental design. At the end of the treatment period, 300 μl of culture medium were removed from each well, and 20 μl of MTT solution (5 mg/ml) were added and incubated for 1 h.

Assay [2] has as its system TNBC tumor. As to the kind of experiment: Tumor size in PDX mouse model of TNBC. Format: in vivo, mice. The following applies: for tumor shrinkage in mAb a3-3a-treated TNBC mice / shrinkage of TNBC tumor in mAb a3-3a-treated mice: peptide 0.1 mg/kg daily intranasal plus a3-3a 2 mg/kg weekly i.p.; for tumor shrinkage in mAb a3-3a-treated TNBC mice: three weeks; for p40 mAb a3-3a-mediated reduction of TNBC tumor: peptide 0.1 mg/kg daily intranasal plus p40 mAb 2 mg/kg weekly, 2 weeks, infrared imaging; for shrinkage of TNBC tumor in mAb a3-3a-treated mice: 3 weeks. The source says:
Animals: Animal maintaining and experiments were in accordance with National Institute of Health guidelines and were approved by the Institutional Animal Care and Use committee of the Rush University of Medical Center, Chicago, Ill. Patient-derived xenograft (PDX) model (ID # TM00096) was purchased from Jackson Laboratory, Bar Harbor, Me., USA. In this model, TNBC tumor fragments at passage P1-P9 (invasive ductal carcinoma; TNBC ER^−PR^−HER2^−) were engrafted in the flank of female 6-8 week old NOD scid gamma (NSG) mice. Mice were shipped to us by Jackson Laboratory within ˜2 weeks following tumor engraftment. PDX mice were maintained in our temperature-controlled animal vivarium with adequate food and water.
Tumor measurement: Tumor growth was measured with a caliper and tumor cross-sectional area was determined with the formula (mm^2=longest diameter X shortest diameter). Treatment with p40 mAb started when the tumor sizes reached 0.6-0.8 cm^2 in area. The p40 mAb a3-3a was injected once a week intraperitoneally in 0.1 ml volume of sterile PBS-1% normal mouse serum. The tumors were then measured to determine progression or regression. Infrared dye (Alexa 800-conjugated 2DG dye; Licor) was injected via tail-vein on the day before imaging analysis. Mice were sacrificed at the end of the study and tumor tissues were collected for different biochemical analyses.

Assay [3] has as its system TNBC tumor. The assay can be described thus: H&E staining of tumor sections of PDX mice. Format: in vivo. Conditions: peptide 0.1 mg/kg daily intranasal plus p40 mAb 2 mg/kg weekly, 2 weeks.
Assay [4] relates to IFNγ, IL-10. The assay can be described thus: Serum IFNγ and IL-10 by sandwich ELISA in PDX mice. Format: in vivo. The following applies: peptide 0.1 mg/kg daily intranasal plus p40 mAb, 2 weeks. As to the method: (§2) Sandwich ELISA: Sandwich ELISA was used to quantify p402 and p40 as described by us. Briefly, for p402, mAb a3-1d (1.3 mg/mL) was diluted 1:3000 and added to each well (100 μL/well) of a 96-well ELISA plate for coating. The biotinylated p402 mAb d7-12c (2 mg/mL) was diluted 1:3000 and used as detection antibody. Similarly for p40, mAb a3-3a (1.3 mg/mL) and biotinylated p40 mAb a3-7g (2 mg/mL) were also diluted 1:3000 and used as coating and detection antibodies, respectively. Concentrations of IFN-γ, IL-12, IL-23, and IL-10 were measured in serum or tissue homogenates by ELISA (eBioscience/ThermoFisher), according to the manufacturer's instructions as described before.
Background: ELISA stands for enzyme-linked immunosorbent assay.

In assay [5] the test system is Hep3B (human liver cancer cells). The assay can be described thus: MTT assay (cell viability), Hep3B. Format: cell-based. The following applies: 48 h, serum-free, combined with mAb a3-3a. As to the method: as §1
Assay [6] deals with MCF-7 cells. As to the kind of experiment: MTT assay (cell viability), MCF-7. The format is cell-based, human. The following applies: MCF-7, 48 h, serum-free, combined with mAb a3-3a. As to the method:
as §1
In general terms: Formazan colour is commonly taken as a measure of viable cells.

Assay [7] relates to human IFNγ, human IL-10. The assay can be described thus: IFNγ and IL-10 in tumor tissue extracts by sandwich ELISA. The format is in vivo, mice. The following applies: peptide 0.1 mg/kg daily intranasal plus p40 mAb, 2 weeks. As to the method:
FIG. 23A-23B. Intranasal wtTIDM peptide stimulates the p40 mAb-mediated induction of IFNγ while reducing the level of IL-10 in TNBC tumor tissues of patient-derived xenograft (PDX) mice. Female 6-8 week old NOD scid gamma (NSG) mice were engrafted TNBC tumor fragments at passage P1-P9 (invasive ductal carcinoma; TNBC ER^−/−/PR^−/−/HER2^−/−) in the flank. After about 4 weeks of engraftment, when tumors of PDX mice were 0.6-0.8 cm^2 in size, mice were treated with p40 mAb and hamster IgG at a dose of 2 mg/kg body wt once a week. Mice were also treated with wild type (wt) and mutated (m) TLR2-interacting domain of MyD88 (TIDM) peptide at a dose of 0.1 mg/kg body wt daily via intranasal route. After 2 weeks of treatment, levels of human IFNγ (23A) and human IL-10 (23B) were measured in tumor tissue extracts by sandwich ELISA (Thermofisher). Results are mean±SEM of 6-7 mice per group. ***p<0.001.
as §2

Assay [8] relates to splenocytes. The assay can be described thus: FACS of T cells in splenocytes of PDX mice. Format: in vivo. The following applies: intranasal peptide plus p40 mAb, 3 weeks. The procedure:
Isolation of splenocytes: Spleens isolated from treated or untreated PDX mice were placed into a cell strainer and mashed with a syringe plunger. Resulting single-cell suspensions were treated with RBC lysis buffer (Sigma-Aldrich), washed, and cultured in RPMI 1640 supplemented with 10% FBS, 50 μM 2-ME, 2 mM L-glutamine, 100 U/ml penicillin, and 100 μg/ml streptomycin.
Flow cytometry: Single-cell suspensions isolated from mouse spleen or tumor were stained with Zombie Aqua™ Fixable Viability Kit (Biolegend) according to the manufacturer's instructions. Cells were washed with FACS buffer (ThermoFisher) and stained with FITC-anti-human CD4 antibody and APC/Cy7-anti-human CD8 antibody (Biolegend) for extracellular stains. For IFNγ staining, cells were stained with PE-anti-human IFNγ antibody (Biolegend) and detected by flow cytometry analysis. Only PE-treated and unstained cells served as control. Flow cytometric analyses were performed using the LSRFortessa analyzer (BD Biosciences) and analyzed using the FlowJo Software (v10) as described.

Regarding “mTIDM: Mutated (m) TIDM control peptide, drqikiwfqnrmikwkkPGWHGD (SEQ ID NO.: 5) ([dD][dR][dQ][dI][dK][dI][dW][dF][dQ][dN][dR][dM][dI][dK][dW][dK][dK]PGWHGD) [reference compound]”, the “death by combination of mAb a3-3a and TIDM peptide (MTT)” value (shortened to “death by combination”) in assay [1] is given as “not”. In assay [2], the “tumor shrinkage in mAb a3-3a-treated TNBC mice” value is listed as “not” and the “p40 mAb a3-3a-mediated reduction of TNBC tumor” value is on record as “remained unable to stimulate”. The “death of TNBC tumor in p40 mAb a3-3a-treated mice (H&E)” value in assay [3] was “not”. In addition, in assay [4], the “p40 mAb a3-3a-mediated induction of IFNγ in serum” value was “not” and the “p40 mAb a3-3a-mediated reduction of IL-10 in serum” value is “not”. In assay [5], the “death by combination” value was “not”. For the same substance, in assay [6], the “death by combination” value is recorded as “not”. Moreover, in assay [7], the “p40 mAb a3-3a-mediated induction of IFNγ in tumor tissues” value is “not” and the “p40 mAb a3-3a-mediated reduction of IL-10 in tumor tissues” value was “not”.

As to “NEMO-binding domain (NBD) peptide [wtNBD]”, the “death induced by p40 mAb a3-3a in presence of NBD peptide (MTT)” value in assay [1], in assay [5] and in assay [6] was “greater death” throughout. Also, the “shrinkage of TNBC tumor in mAb a3-3a-treated mice” value in assay [2] was “greater shrinkage”. Moreover, the “Tc1 (CD8+IFNγ+) response in p40 mAb-treated TNBC mice” value in assay [8] was “markedly stimulated”.

In the case of “mNBD: Mutated (m) NBD control peptide, drqikiwfqnrrmkwkkLDASAL (SEQ ID NO: 9) ([dD][dR][dQ][dI][dK][dI][dW][dF][dQ][dN][dR][dR][dM][dK][dW][dK][dK]LDASAL) [reference compound]”, the “death induced by p40 mAb a3-3a in presence of NBD peptide (MTT)” value in assay [1], in assay [5] and in assay [6] was “not seen” throughout. Besides, the “shrinkage of TNBC tumor in mAb a3-3a-treated mice” value in assay [2] was “did not exhibit such effect”.

For the substance “TLR2-interacting domain of MyD88 (TIDM) peptide (DRQIKIWFQNRRMKWKKPGAHQK; not fully specified (some residues)) [wtTIDM]”, the “death by combination” value in assay [1] is “markedly induced death”. In assay [2], the “tumor shrinkage in mAb a3-3a-treated TNBC mice” value was “greater tumor shrinkage” and the “p40 mAb a3-3a-mediated reduction of TNBC tumor” value was “significantly stimulated”. Also, the “death of TNBC tumor in p40 mAb a3-3a-treated mice (H&E)” value in assay [3] is on record as “stimulated the death”. Moreover, in assay [8], the “Tc1 (CD8+IFNγ+) response in p40 mAb-treated TNBC mice” value is reported as “markedly stimulated”. Moreover, in assay [4], the “p40 mAb a3-3a-mediated induction of IFNγ in serum” value is on record as “stimulated” and the “p40 mAb a3-3a-mediated reduction of IL-10 in serum” value is recorded as “potentiated”. Moreover, the “death by combination” value in assay [5] is on record as “markedly induced death”. Moreover, the “death by combination” value in assay [6] was “markedly induced death”. Further, in assay [7], the “p40 mAb a3-3a-mediated induction of IFNγ in tumor tissues” value is recorded as “stimulated” and the “p40 mAb a3-3a-mediated reduction of IL-10 in tumor tissues” value is given as “potentiated”.

The record behind these values is US20230174636A1, “COMPOSITIONS AND METHODS FOR TREATING CANCER” (RUSH UNIVERSITY MEDICAL CENTER, priority 2020, published 2023).
